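How tested: cells in 96-well plates exposed to compound for 48 hours at five concentrations. GI50 = concentration required for 50% inhibition of growth.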 Activity calls are given as the source filed them. Rule as the data show it: active = GI50 up to about 1.1 µM and inactive = higher. Where a SMILES comes first, the peptide text is derived from it. [ ]: non-standard residue; d: D form. The star is where a group is joined. ξ: configuration not given here. ξD = NC(CC(=O)O)C(=O)O; Boc = CC(C)(C)OC(=O)*; Aib = CC(C)(N)C(=O)O; OtBu = CC(C)(C)O*
How the values were obtained:
Assay in all cases: inhibition of tumour cell growth, NCI panel, 48 h
COLO 205 = tested on: COLO 205
TK-10 = tested on: TK-10
LOX IMVI = tested on: LOX IMVI
CAKI-1 = tested on: CAKI-1
OVCAR-3 = tested on: OVCAR-3
PC-3 = tested on: PC-3
SNB-19 = tested on: SNB-19
SF-539 = tested on: SF-539
NCI-H522 = tested on: NCI-H522
HCT-15 = tested on: HCT-15
K562 = tested on: K562
RXF 393 = tested on: RXF 393
SK-OV-3 = tested on: SK-OV-3
A498 = tested on: A498
DU-145 = tested on: DU-145
UACC-62 = tested on: UACC-62
MOLT-4 = tested on: MOLT-4
SR = tested on: SR
786-0 = tested on: 786-0
HOP-92 = tested on: HOP-92

Measured: GI50

CS(=O)(=O)c1nc(-c2cc3c(c(S(C)(=O)=O)n2)CCCC3)cc2c1CCCC2
> 100 µM: HCT-15
inactive: COLO 205 > 100 µM | TK-10 > 64.6 µM | LOX IMVI > 62.4 µM | CAKI-1 > 39.9 µM | OVCAR-3 > 100 µM | PC-3 > 100 µM | SNB-19 > 55.7 µM | SF-539 > 65.2 µM | NCI-H522 > 39.8 µM | K562 > 100 µM | RXF 393 26.1 µM | SK-OV-3 > 35.1 µM | A498 > 100 µM | DU-145 > 100 µM | UACC-62 > 38.4 µM | MOLT-4 > 100 µM | SR > 100 µM | 786-0 41 µM

Cc1cccc2c1Oc1cc(Cl)ccc1C2NC(=O)CCN1CCN(CCO)CC1 (stereo not given)
18.4 µM: HCT-15
inactive: COLO 205 17.7 µM | TK-10 > 10 µM | LOX IMVI 2.75 µM | OVCAR-3 17.7 µM | PC-3 14.5 µM | SNB-19 22 µM | SF-539 13.1 µM | HOP-92 10.7 µM | NCI-H522 11.1 µM | K562 18.2 µM | SK-OV-3 25.9 µM | DU-145 27.2 µM | UACC-62 5.66 µM | MOLT-4 14.4 µM | SR 21.8 µM | 786-0 13.6 µM

CCOC(=O)c1ccc(-c2ccc(Cl)cc2)[nH]1
active: PC-3 0.0161 µM
> 10 µM: HCT-15
inactive: TK-10 > 10 µM | OVCAR-3 > 10 µM | SNB-19 > 10 µM | SF-539 > 10 µM | HOP-92 > 10 µM | NCI-H522 > 10 µM | K562 > 10 µM | SK-OV-3 > 10 µM | DU-145 > 10 µM | UACC-62 > 10 µM | MOLT-4 > 10 µM | SR > 10 µM | 786-0 > 10 µM

COc1ccc(CN(Cc2ccc(OC)cc2)C(=O)CC2(O)C=CCC2)cc1 (stereo not given)
inactive: COLO 205 40 µM | TK-10 > 100 µM | LOX IMVI > 100 µM | CAKI-1 46.7 µM | OVCAR-3 98.2 µM | PC-3 28 µM | SNB-19 71.9 µM | SF-539 > 100 µM | HOP-92 > 100 µM | NCI-H522 32.7 µM | K562 34 µM | SK-OV-3 > 100 µM | A498 > 100 µM | DU-145 > 100 µM | UACC-62 57.7 µM | MOLT-4 31.6 µM | SR 36.1 µM | 786-0 > 100 µM
78.7 µM: HCT-15

COc1cc(/C=C2\N=C(c3ccccc3)N(c3ccc4c(c3)Sc3cc(N5C(=O)/C(=C/c6cc(OC)c(OC)c(OC)c6)N=C5c5ccccc5)ccc3N4)C2=O)cc(OC)c1OC
> 100 µM: HCT-15
inactive: COLO 205 20.9 µM | TK-10 16.9 µM | LOX IMVI 22.4 µM | CAKI-1 18.5 µM | OVCAR-3 20.8 µM | PC-3 19.6 µM | SNB-19 21.2 µM | HOP-92 18.8 µM | NCI-H522 17.1 µM | K562 21 µM | RXF 393 20.7 µM | SK-OV-3 21.3 µM | A498 20.7 µM | DU-145 54.3 µM | UACC-62 16.9 µM | MOLT-4 37.2 µM | 786-0 20.9 µM

CCOC(=O)c1cc(C2(OC)CCN(Cc3ccccc3)C2=O)c(-c2cc(C)no2)[nH]1 (stereo not given)
inactive: COLO 205 > 100 µM | TK-10 > 100 µM | CAKI-1 > 100 µM | OVCAR-3 > 100 µM | PC-3 > 100 µM | SNB-19 > 100 µM | HOP-92 90.6 µM | NCI-H522 > 100 µM | K562 > 100 µM | RXF 393 99.5 µM | SK-OV-3 > 100 µM | A498 > 100 µM | DU-145 > 100 µM | UACC-62 > 100 µM | MOLT-4 > 100 µM | 786-0 > 100 µM
> 100 µM: HCT-15

CSC1=N[C@H](c2ccccc2)CS1
> 100 µM: HCT-15
inactive: COLO 205 > 100 µM | TK-10 > 100 µM | CAKI-1 > 100 µM | OVCAR-3 > 100 µM | PC-3 > 100 µM | SNB-19 > 100 µM | SF-539 > 100 µM | K562 > 100 µM | A498 > 100 µM | DU-145 > 100 µM | UACC-62 > 100 µM | MOLT-4 > 100 µM | 786-0 > 100 µM

Oc1ccc[nH]c1=[Se]
inactive: COLO 205 18.7 µM | TK-10 55.3 µM | LOX IMVI 64.6 µM | CAKI-1 69.7 µM | OVCAR-3 > 100 µM | PC-3 > 100 µM | SNB-19 85.9 µM | SF-539 54.6 µM | HOP-92 > 100 µM | NCI-H522 29.6 µM | K562 36.2 µM | RXF 393 > 100 µM | SK-OV-3 87.1 µM | DU-145 62.2 µM | UACC-62 > 100 µM | MOLT-4 > 100 µM | SR 36.3 µM | 786-0 16 µM
44.4 µM: HCT-15

Cc1ccccc1S(=O)(=O)Nn1cnc2ccc(S(=O)(=O)Nc3ccc(Cl)cc3)cc2c1=O
inactive: COLO 205 > 100 µM | TK-10 > 100 µM | LOX IMVI > 100 µM | CAKI-1 > 100 µM | OVCAR-3 85.5 µM | PC-3 16.1 µM | SNB-19 > 100 µM | SF-539 > 100 µM | HOP-92 > 100 µM | NCI-H522 > 100 µM | K562 10 µM | SK-OV-3 > 100 µM | DU-145 > 100 µM | UACC-62 27.5 µM | MOLT-4 > 100 µM | SR > 100 µM | 786-0 > 100 µM
> 100 µM: HCT-15

CC1(c2ccccc2)CCN(C2CC2)CO1 (stereo not given)
inactive: COLO 205 21.6 µM | TK-10 13.8 µM | LOX IMVI 18 µM | CAKI-1 18.8 µM | OVCAR-3 17.7 µM | PC-3 > 100 µM | SNB-19 > 100 µM | K562 15.3 µM | RXF 393 26.9 µM | SK-OV-3 > 100 µM | DU-145 29.6 µM | UACC-62 18.1 µM | MOLT-4 18.3 µM | SR 25.5 µM | 786-0 11.4 µM
16.5 µM: HCT-15

O=C(CSc1nnc(-c2ccccn2)s1)N/N=C/c1ccccc1
inactive: COLO 205 > 100 µM | TK-10 89.1 µM | LOX IMVI > 100 µM | CAKI-1 > 100 µM | OVCAR-3 > 100 µM | PC-3 > 100 µM | SNB-19 > 100 µM | SF-539 > 100 µM | HOP-92 86.7 µM | NCI-H522 > 100 µM | K562 > 100 µM | SK-OV-3 > 100 µM | A498 > 100 µM | DU-145 > 100 µM | UACC-62 > 100 µM | MOLT-4 63.5 µM | SR > 100 µM | 786-0 76.9 µM
> 100 µM: HCT-15

O=C(CP(c1ccccc1)c1ccccc1)c1cccc(C(=O)CP(c2ccccc2)c2ccccc2)c1
49.3 µM: HCT-15
inactive: COLO 205 12.1 µM | TK-10 > 100 µM | CAKI-1 86.3 µM | PC-3 37.2 µM | SNB-19 43.8 µM | SF-539 > 100 µM | K562 8.02 µM | RXF 393 61.7 µM | SK-OV-3 > 100 µM | DU-145 55.8 µM | UACC-62 78.3 µM | MOLT-4 6.75 µM | SR 15.7 µM | 786-0 85.7 µM

CCCCNC(=O)OCCN=c1c2ccccc2ccc2ccccc12
> 100 µM: HCT-15
inactive: COLO 205 > 100 µM | TK-10 > 100 µM | LOX IMVI > 100 µM | CAKI-1 > 100 µM | OVCAR-3 > 100 µM | PC-3 > 100 µM | SNB-19 > 100 µM | SF-539 > 100 µM | HOP-92 > 100 µM | K562 > 100 µM | RXF 393 > 100 µM | SK-OV-3 > 100 µM | DU-145 > 100 µM | UACC-62 > 100 µM | MOLT-4 > 100 µM | SR > 100 µM | 786-0 > 100 µM

O=[N+]([O-])c1cccc(/N=N/c2c(O)ccc3ccccc23)c1
44.6 µM: HCT-15
inactive: COLO 205 > 100 µM | TK-10 44.7 µM | LOX IMVI > 100 µM | CAKI-1 > 100 µM | OVCAR-3 > 10 µM | PC-3 55 µM | SNB-19 25.4 µM | HOP-92 48.1 µM | NCI-H522 45.1 µM | K562 69 µM | RXF 393 91.2 µM | SK-OV-3 35.2 µM | A498 > 100 µM | DU-145 > 100 µM | UACC-62 41.4 µM | MOLT-4 85.3 µM | 786-0 69.7 µM

C=CCOc1cc2c(cc1C(C)c1ccc(OC)cc1)OCO2 (stereo not given)
active: COLO 205 0.471 µM | LOX IMVI 0.598 µM | CAKI-1 0.628 µM | OVCAR-3 0.429 µM | PC-3 0.352 µM | SNB-19 0.564 µM | SF-539 0.333 µM | NCI-H522 0.205 µM | K562 0.39 µM | RXF 393 0.091 µM | SK-OV-3 0.311 µM | UACC-62 0.416 µM | MOLT-4 0.483 µM | SR 0.299 µM | 786-0 0.655 µM
inactive: TK-10 7.41 µM | A498 2.08 µM | DU-145 10.6 µM
0.489 µM: HCT-15

COC(=O)C(C)(C)NC(=O)C(C)(C)NC(=O)C(CC(=O)OC(C)(C)C)NC(=O)OC(C)(C)C (stereo not given) (Boc-[ξD](OtBu)-[Aib]-[Aib]-OMe)
> 100 µM: HCT-15
inactive: COLO 205 > 100 µM | TK-10 > 100 µM | LOX IMVI > 100 µM | CAKI-1 > 100 µM | OVCAR-3 > 100 µM | PC-3 > 100 µM | SNB-19 > 100 µM | SF-539 > 100 µM | HOP-92 > 100 µM | NCI-H522 > 100 µM | K562 > 100 µM | RXF 393 > 100 µM | SK-OV-3 > 100 µM | A498 > 100 µM | DU-145 > 100 µM | UACC-62 > 100 µM | MOLT-4 > 100 µM | 786-0 > 100 µM
